Measurements: US20040121474A1, “Detection and evaluation of chemically-mediated and ligand-mediated t-cell activation using optophoretic analysis” (Genoptix, Inc, priority 2002, published 2004)

Assays:
[1] = tested on: U937 cells; assay: Escape velocity of PMA-treated U937 cells, time course; assay type: cell-based
Experimental: PMA was dissolved in ethanol at a concentration of 5 mg/mL. 3 mls of U937 cells grown in RPMI 1640 media with supplements were removed from the culture flask and 1 ml was placed into each of three eppendorf tubes. Cells from the first tube were pelleted for 4 minutes at 10,000 rpm and resuspended in 250 uL PBS/1% BSA buffer for escape velocity measurements. […] These tubes were vortexed and placed in a 37° C. water bath for either one hour or six hours. At the end of the time point, the tube was removed, cells were pelleted and then resuspended as described above and escape velocity measurements taken.
The preferred method of performing cellular interrogation is through optical interrogation which includes determining the optophoretic properties of the cell(s). The optophoretic properties of the cell(s) can be determined in any number of ways. In one preferred embodiment, the escape velocity of cell(s) is used to determine the optophoretic properties. The escape velocity (measured typically in μm/sec) is defined as the minimum speed at which an interrogated cell no longer tracks the moving optical gradient.
The objective of this experiment is to compare the escape velocities of U937 cells that have been treated with the phorbol ester, phorbol 12 myristate 13-acetate (PMA), to the escape velocity of untreated U937 cells. PMA activates the Protein Kinase C pathway and may cause the cells to go into rapid cell differentiation, which may be indicated by a shift in escape velocity. The effect of PMA activation was tested at three timepoints: no activation, 1 hour of activation, and 6 hours of activation. At the end of the activation period, the cells were centrifuged for 4 minutes at 10,000 rpm. […] The cells were then centrifuged again and resuspended in buffer. The escape velocity and the cell size of cells from each tube were then calculated.

[2] = tested on: CD11b expression in HL-60 cells; assay: FACS CD11b expression profile; assay type: cell-based; conditions: 400 ng/ml PMA
Experimental: Fast scan analysis was also performed on HL-60 cells that were treated with PMA and DMSO. A time course evaluation of PMA treated HL-60 cells was performed with fast scan data taken at 16 hours, 24 hours, 40 hours, and 72 hours post-treatment with 400 ng/ml PMA. A control sample of HL-60 cells was also tested using EtOH as the vehicle for purposes of comparing the differentiated cells with the undifferentiated HL-60 cells. The PMA-treated and control cells were harvested and trypsinized. The samples were then resuspended in PBS/1% BSA. A set of samples was also obtained and left as pellets at 4° C. for subsequent FACS analysis.
FIG. 145 illustrates a histogram of the travel distance of the control cells as well as the PMA-treated cells at 16 hours, 24 hours, 40 hours, and 72 hours post-treatment. FIG. 146 illustrates the mean travel distances of the control cells as well as the PMA-treated cells at 16 hours, 24 hours, 40 hours, and 72 hours post-treatment. FIG. 147 illustrates the FACS CD11b expression profile in PMA-treated HL-60 cells as well as the control. CD11b is a known marker of cellular differentiation and is expressed on the surface of differentiating cells. […] The data illustrate that Optophoretic analysis can be used as an assay for the detection and quantification of cellular differentiation. […]

SMILES: CCCCCCCCCCCCCC(=O)O[C@@H]1[C@@H](C)[C@@]2(O)[C@@H](C=C(CO)C[C@]3(O)C(=O)C(C)=C[C@@H]23)[C@@H]2C(C)(C)[C@]12OC(C)=O [PMA, phorbol 12 myristate 13-acetate]
- distribution of escape velocities (FIG. 31) ([1]; 0.01 μg/ml PMA, 6 and 9 hours post treatment): clear trend toward higher escape velocities over time
- escape velocity as compared to the untreated cells ([1]; 5 ug/mL PMA, 6 hours): significantly higher escape velocity
- Escape velocity Average ([1]; 1 hour of PMA activation): 15.3 μm/sec
- Escape velocity Average ([1]; 6 hours of PMA activation): 28.0 μm/sec
- time after treatment at which a noticeable change in CD11b expression levels was observed [2]: about 40 hours
